Results on 1 compound are retold here after US20210052566A1, “METHODS FOR TREATING HEPATITIS B VIRUS (HBV) INFECTION” (INSERM (INSTITUT NATIONAL DE LA SANTÉ ET DE LA RECHERCHE …, priority 2018, published 2021).

Structures are written as SMILES. Where only a bound is given, the exact number is not on record here.

The subject of data set [1] is HBV genotype D. The data set is described as follows: Anti-HBV properties in persistently infected dHepaRG cells, genotype D (post-infection treatment). In kind it is cell-based, Hepatitis B virus. How it is done:
FIG. 1. Experimental outlines. Treatment schemes: (a) Treatments in pre-infection: dHepaRG cells were treated for 24 h (at day −1) with 100 nM of PreS1 peptide (PreS1-pep) or 10 μM of 1C8, or untreated (NT). At day 0, cells were inoculated with HBV (MOI=250) or with HDV (MOI=25) in the presence of drugs for 24 h. For the tenofovir control (TDF at 10 μM), cells were treated at day 1 and 4 post-infection. Supernatant and cells were harvested at day 7 post-infection. (b) Treatments in post-infection: dHepaRG cells were inoculated with HBV (MOI=250) or with HDV (MOI=25). At days 4, 7 and 9 post infection, cells were treated with TDF 10 μM, lamivudine (3TC) at 10 μM, 1C8 10 μM or untreated (NT). Supernatant and cells were harvested at day 11 postinfection.
(§1) FIG. 5. Anti-HBV properties of 1C8 in persistently infected dHepaRG cells: genotype D. Differentiated HepaRG were infected with HBV genotype D at a MOI of 100 vge/cell or HDV genotype 1 at a MOI of 10 vge/cell for 7 days before being treated trice every 2-3 days with indicated molecules at a concentration of 10 microM. A) Total DNA and RNA were extracted from cells and subjected to qPCR and RTqPCR to detect HBV cccDNA, total HBV RNA or pregenomic HBV RNA. B) HBs and HBe secreted antigens in supernatant were quantified by ELISA, whereas HBV DNA contained in virions was quantified by qPCR after viral nucleic acid extraction from supernatant. C) Intracellular HDV RNA was quantified by RTqPCR after total RNA extraction from cells. D) Viability was monitored in 1C8-treated (or control treated; puromycin is a positive toxic molecule) cells by CellTiter-Glo® luminescent cell viability assay. Results are the mean+SEM of n=3 performed with 3 different differentiations of HepaRG. Statistics were done by two-tailed Mann-Whitney test, with following significativity: *P<0.05, **P<0.01, ***P<0.001, ****P<0.0001. nd=not determined
Human liver progenitor HepaRG cells were cultured in Williams medium (ThermoFisher) supplemented with 10% of FBS (Perbio), Penicillin/Streptomycin (500 U/mL), glutamine (2 mM), hydrocortisone Upjohn (2.5 mg/L; Serb laboratory), insulin (5 mg/L; Sigma Aldrich). For the differentiation process 2% of DMSO was added to the above-described supplemented Williams medium. […] The multiplicity of infection (MOI; expressed as virus genome equivalent/cell) is indicated in the figure legends, but was of 100 vge/cell if not precised.
From cell culture supernatants, secreted HBe and HBs antigens were quantified by ELISA, using a chemiluminescence immunoassay kit (Autobio, China) following manufacturer's instructions. […]
A HBV standard was used for quantification of extracellular viral DNA and RNA. […]

Data set [2] deals with HBV genotype D. The data set is described as follows: HBV replication in persistently infected primary human hepatocytes (PHH). Type of data set: cell-based, Hepatitis B virus. The conditions noted are these: 10 microM. An excerpt:
FIG. 9. Effect of 1C8 on persistently infected primary human hepatocytes. Two different batches of PHH from two different donors were used in these experiments (Batch 1: panels A, B, and C; Batch 2: panels D, and E). A) PHH were infected with HBV genotype D at a MOI of 100 vge/cell for 4 days before being treated trice every 2-3 days with indicated molecules at a concentration of 10 microM. B) Intracellular total RNA were extracted from cells and subjected to RT-qPCR to detect HBV pgRNA and total HBV RNA. C) HBs and HBe secreted antigens in supernatant were quantified by ELISA. D) PHH were infected with HBV genotype D at a MOI of 100 vge/cell. 6 days after the infection, cells were treated five times with indicated molecules at a concentration of 10 microM. Supernatant was harvested after each treatment and cells were harvested at day 13 post infection. E) HBe and HBs secreted antigens in supernatant were quantified by ELISA. Results are the mean+SD of n=3 (panels A, B, and C) or n=4 (panels D and E).
Primary human hepatocytes (PHH) were freshly prepared from human liver resections obtained from the Centre Léon Bérard (Lyon) with French ministerial authorizations as previously described (Leycluse and Alexandre, 2010). […]
Secreted HBe and HBs antigens and intracellular HBV RNA were analyzed as described in EXAMPLE 1.

Data set [3] concerns HepaRG cells. The data set is described as follows: Cytotoxicity, CellTiter-Glo Luminescent Cell Viability Assay. In kind it is cell-based, Human. As to conditions: highest concentration tested 40 microM.
From the text: as §1
Cytotoxicity was measured in HepaRG cells treated with drugs as in experimental schemes presented if FIG. 1 with the “CellTiter-Glo® Luminescent Cell Viability Assay” from Promega, by following manufacturer's instructions.
(In general: Cellular ATP, detected with luciferase, serves as a proxy for viable cell number.)

For data set [4], the target named is SRSF10 (Homo sapiens, UniProt O75494). As to conditions: cited from earlier work.
For data set [5], the system named is HIV-1. As to conditions: cited from earlier work.

Sequence of SRSF10 (O75494 whole entry): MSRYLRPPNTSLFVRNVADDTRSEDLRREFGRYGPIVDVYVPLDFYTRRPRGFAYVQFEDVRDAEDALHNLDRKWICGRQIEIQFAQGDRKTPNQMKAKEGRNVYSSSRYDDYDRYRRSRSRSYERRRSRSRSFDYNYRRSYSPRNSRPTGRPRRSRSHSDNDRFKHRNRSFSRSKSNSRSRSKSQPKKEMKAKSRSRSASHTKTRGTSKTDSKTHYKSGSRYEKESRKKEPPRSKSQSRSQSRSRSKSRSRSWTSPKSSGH

For `Cn1ccc(=O)c(C(=O)Nc2nsc3ccc([N+](=O)[O-])cc23)c1` [1C8, 4-pyridinonebenzisothiazole carboxamide], the “reduction of secretion of viral antigens (HBs and HBeAg) in cell culture supernatant” value in data set [1] (10 microM three times, ELISA) was 60-70%. Also, the “reduction of HBV virions (secreted HBV DNA) in cell culture supernatant” value in data set [1] (10 microM three times, qPCR) is given as 60-70%. For the same compound, the “reduction of the accumulation of intracellular HBV RNA” value in data set [1] (MOI 100 vge/cell, treated three times every 2-3 days with 10 microM) is listed as 60-70%. Also, the “amount of intracellular viral RNAs (total and pgRNA)” value in data set [2] was “significant reduction”. In addition, the “decrease of secreted viral antigens HBe and HBs (viral replication)” value in data set [2] (two donors, MOI 100 vge/cell) is more than 60%. Besides, the “concentration toxic for cells (viability, CellTiter-Glo)” value in data set [3] is more than 40 µM. For the same compound, the “SRSF10 phosphorylation at serine 133” value in data set [4] is “inhibit SRSF10 phosphorylation at serine 133”. The “inhibition of HIV-1 replication” value in data set [5] is “strong inhibitor”.
